Results: ChEMBL document CHEMBL1145246, “Lactams as prostanoid receptor ligands. Part 4: 2-Piperidones as selective EP4 receptor agonists” (Bioorg Med Chem Lett, 2005)

Assays:
[1] = target: Prostaglandin E2 receptor EP4 subtype (Homo sapiens, UniProt P35408); assay: Effective concentration required for prostanoid EP4 receptor activity was determined; type: functional
[2] = Binding affinity for prostanoid EP2 receptor
[3] = Binding affinity for prostanoid EP4 receptor
[4] = Binding affinity for prostanoid EP3 receptor
[5] = Binding affinity for Prostanoid EP2 receptor

Prostaglandin E2 receptor EP4 subtype, sequence (P35408 whole entry): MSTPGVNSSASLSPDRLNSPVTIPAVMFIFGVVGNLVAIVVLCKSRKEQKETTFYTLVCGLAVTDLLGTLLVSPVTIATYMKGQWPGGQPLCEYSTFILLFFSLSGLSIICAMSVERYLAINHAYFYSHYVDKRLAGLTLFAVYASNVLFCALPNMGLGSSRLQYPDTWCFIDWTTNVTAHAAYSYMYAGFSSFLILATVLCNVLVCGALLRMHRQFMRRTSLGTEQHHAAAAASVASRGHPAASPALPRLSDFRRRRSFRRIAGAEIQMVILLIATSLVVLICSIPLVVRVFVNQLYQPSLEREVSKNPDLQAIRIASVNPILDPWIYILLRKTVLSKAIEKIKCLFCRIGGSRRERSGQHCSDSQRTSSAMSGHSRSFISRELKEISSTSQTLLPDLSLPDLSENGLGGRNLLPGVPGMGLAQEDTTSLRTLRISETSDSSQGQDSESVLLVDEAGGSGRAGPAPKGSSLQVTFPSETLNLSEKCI

Row | SMILES | EC50 [1] [nM] | Ki [2] [nM] | Ki [3] [nM] | Ki [4] [nM] | Ki [5] [nM]
1 | Cc1cc(C[C@H](O)/C=C/[C@H]2CCCC(=O)N2CCCCCCC(=O)O)ccc1O | 280 | > 10000 | 7.4 | > 10000 | –
2 | Cc1cc(Cl)ccc1-c1cccc([C@H](O)CC[C@H]2CCCC(=O)N2CCSCCCC(=O)O)c1 | 6.1 | 1600 | 4.8 | > 10000 | –
3 | O=C(O)CCCSCCN1C(=O)CCC[C@@H]1/C=C/C(O)C1(c2ccccc2)CC1 (some centres not stated) | 260 | > 10000 | 17 | > 10000 | –
4 | CCCCC(C)(C)C(O)/C=C/[C@H]1CCCC(=O)N1CCSCCCC(=O)O (some centres not stated) | 290 | > 10000 | 86 | – | –
5 | CC(C)c1cc(C[C@H](O)/C=C/[C@H]2CCCC(=O)N2CCCCCCC(=O)O)ccc1O | 1730 | > 10000 | 130 | – | –
6 | Cc1cc(O)ccc1-c1cccc(C(=O)CC[C@H]2CCCC(=O)N2CCCCCCC(=O)O)c1 | 21000 | – | – | – | –
7 | Cc1cc(O)ccc1-c1cccc([C@@H](O)CC[C@H]2CCCC(=O)N2CCCCCCC(=O)O)c1 | 110 | > 10000 | 25 | > 10000 | –
8 | COCc1cccc(C[C@H](O)/C=C/[C@H]2CCCC(=O)N2CCSCCCC(=O)O)c1 | 44 | > 10000 | 22 | > 10000 | –

Other lines, results leading:

Row | EC50 [1] [nM] | Ki [2] [nM] | Ki [3] [nM] | Ki [4] [nM] | Ki [5] [nM] | SMILES
9 | 630 | > 10000 | 105 | > 10000 | – | O=C(O)CCCSCCN1C(=O)CCC[C@@H]1CC[C@@H](O)c1ccc(C(F)(F)F)o1
10 | 44 | > 10000 | 8.7 | – | – | COCc1cccc(C[C@H](O)/C=C/[C@H]2CCCC(=O)N2CCCCCCC(=O)O)c1
11 | 34 | 3800 | 7.3 | > 10000 | – | O=C(O)CCCSCCN1C(=O)CCC[C@@H]1/C=C/[C@@H](O)CCC1CCC1
12 | 190 | – | 21 | > 10000 | > 10000 | O=C(O)CCCSCCN1C(=O)CCC[C@@H]1/C=C/[C@@H](O)CCC1CC1
